Target: T1, EP4 (Homo sapiens, UniProt P35408)
T1 construct: host or cells: HEK293, stably transfected; also expresses a promiscuous G protein and a clytin variant
Experiment: EP4 Ca2+-flux assay (functional calcium flux assay, stably transfected HEK293 cells)
Type: cell-based
Details: HEK293 cells stably transfected with EP4; ligand PGE2 10 nM; luminescence readout
Description: The compounds in the present disclosure were tested in a functional calcium flux assay using stably transfected HEK293 cells. Cells transfected with EP1, EP2, EP3 and EP4 were purchased from Eurofins Discovery Services (St. Charles, Mo.). Each receptor subtype has an additional promiscuous G protein added in order to couple to the calcium signaling pathway. The parental cell line used also expresses a novel variant of clytin, a calcium-activated photo-protein, to enable sensitive luminescent detection.
Cells were plated at 50,000 cells per well in black, clear bottom 96-well plates. The plated cells were allowed to sit at room temperature for 30 min prior to transferring to a humidified, 37° C., 5% CO2 incubator for 18-24 h. Assay buffer (HBSS with 20 mM HEPES) and loading buffer (assay buffer plus 10 μM Coelenterazine) were prepared on the day of the assay. Assays were performed by aspirating media from the assay plate and washing once with assay buffer, then replacing with loading buffer and allowing the cells to incubate for 1.5 h at room temperature. Compounds were prepared in assay buffer at a 3× final concentration in non-binding plates. Compounds were added to the cell plates and incubated for 30 min at room temperature. The prostanoid receptor ligand PGE2 was prepared at a 4× dilution ratio for a final concentration of 10 nM. Plates were run on a Flexstation™ using a 100 ms integration luminescence protocol for a total of 60 sec with ligand addition at 15 sec. Data were obtained from relative light units as measured by area under the curve.

T1 sequence (P35408 whole entry): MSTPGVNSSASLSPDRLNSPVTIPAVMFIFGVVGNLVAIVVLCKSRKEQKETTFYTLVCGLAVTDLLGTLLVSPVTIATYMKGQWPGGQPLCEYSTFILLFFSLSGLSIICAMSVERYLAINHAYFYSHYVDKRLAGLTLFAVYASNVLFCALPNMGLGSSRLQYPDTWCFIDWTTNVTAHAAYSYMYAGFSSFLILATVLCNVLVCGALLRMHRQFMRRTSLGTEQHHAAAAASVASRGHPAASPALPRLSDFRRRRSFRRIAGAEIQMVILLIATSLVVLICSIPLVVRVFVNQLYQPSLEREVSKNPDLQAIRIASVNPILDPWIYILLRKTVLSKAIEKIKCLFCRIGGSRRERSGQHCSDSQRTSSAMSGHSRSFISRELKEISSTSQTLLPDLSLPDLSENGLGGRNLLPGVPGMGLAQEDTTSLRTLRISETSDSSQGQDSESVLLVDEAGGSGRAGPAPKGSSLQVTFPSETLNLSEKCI

Question: How did the IC50 turn out when `O=C(O)CC12CC(NC(=O)c3nccc4ccn(Cc5ccc(C(F)(F)F)cc5)c34)(C1)C2` [Example 5, 2-(3-(1-(4-(trifluoromethyl)benzyl)-1H-pyrrolo[2,3-c]pyridine-7-carboxamido)bicyclo[1.1.1]pentan-1-yl)acetic Acid] was run?
Answer: 930 nM

Question: How did the IC50 turn out when `O=C(NC12CC(Cc3nnn[nH]3)(C1)C2)c1cccc2ccn(Cc3ccc(C(F)(F)F)cc3)c12` [Example 18, N-(3-((1H-tetrazol-5-yl)methyl)bicyclo[1.1.1]pentan-1-yl)-1-(4-(trifluoromethyl)benzyl)-1H-indole-7-carboxamide] was run?
Answer: 1.5 nM

Question: How did the IC50 turn out when `[2H]C([2H])(c1ccc(C(F)(F)F)cc1)n1ccc2cccc(C(=O)NC34CC(CC(=O)O)(C3)C4)c21` [Example 7, 2-(3-(1-((4-(trifluoromethyl)phenyl)methyl-d2)-1H-indole-7-carboxamido)bicyclo[1.1.1]pentan-1-yl)acetic Acid] was run?
Answer: 2 nM

Question: For `CC1(NC(=O)c2cccc3ccn(Cc4ccc(C(F)(F)F)cc4)c23)CC(CCC(=O)O)C1` (stereo not drawn) [Example 15, cis-3-(3-methyl-3-(1-(4-(trifluoromethyl)benzyl)-1H-indole-7-carboxamido)cyclobutyl)propanoic Acid], which IC50 is on record?
Answer: 400 nM

Question: With `O=C(NC1CC2(C1)CC(C(=O)O)C2)c1ccc(F)c2ccn(Cc3ccc(C(F)F)cc3)c12` (racemic) [Example 31, rac-6-(1-(4-(difluoromethyl)benzyl)-4-fluoro-1H-indole-7-carboxamido)spiro heptane-2-carboxylic Acid] as the compound, how does the IC50 read?
Answer: 0.03 nM

Question: For `O=C(NC1CC2(C1)CC(C(=O)O)C2)c1ccnc2ccn(Cc3ccc(C(F)(F)F)cc3)c12` (racemic) [Example 9, rac-6-(1-(4-(trifluoromethyl)benzyl)-1H-pyrrolo[3,2-b]pyridine-7-carboxamido) spiro[3.3]heptane-2-carboxylic Acid], which IC50 is on record?
Answer: 6 nM

Question: With `O=C(NC1CC2(C1)CC(C(=O)O)C2)c1cccc2ccn(Cc3ccc(S(F)(F)(F)(F)F)cc3)c12` (racemic) [Example 30, rac-6-(1-((4-(pentafluorothiol)phenyl)methyl)-1H-indole-7-carboxamido)spiro heptane-2-carboxylic Acid] as the compound, how does the IC50 read?
Answer: 0.2 nM

Question: For `O=C(O)C[C@]12C[C@](NC(=O)c3ccc(F)c4ccn(Cc5ccc(C(F)F)cc5)c34)(C1)C2` [Example 32, 2-(3-(1-(4-(difluoromethyl)benzyl)-4-fluoro-1H-indole-7-carboxamido)bicyclopentan-1-yl)acetic Acid], which IC50 is on record?
Answer: 0.1 nM

Question: For `N#Cc1ccc(Cn2ccc3cccc(C(=O)NC4CC5(C4)CC(C(=O)O)C5)c32)cc1` (racemic) [Example 24, rac-6-(1-(4-cyanobenzyl)-1H-indole-7-carboxamido)spiro[3.3]heptane-2-carboxylic Acid], which IC50 is on record?
Answer: 10 nM

Question: With `O=C(NCC12CC(NC(=O)c3cccc4ccn(Cc5ccc(C(F)(F)F)cc5)c34)(C1)C2)NS(=O)(=O)c1ccccc1` [Example 17, N-(3-((3-(phenylsulfonyl)ureido)methyl)bicyclo[1.1.1]pentan-1-yl)-1-(4-(trifluoromethyl)benzyl)-1H-indole-7-carboxamide] as the compound, how does the IC50 read?
Answer: 130 nM

Question: For `O=C(O)CC12CCC(NC(=O)c3cccc4ccn(Cc5ccc(S(F)(F)(F)(F)F)cc5)c34)(C1)C2` [Example 29, 2-(4-(1-((4-(pentafluorothiol)phenyl)methyl)-1H-indole-7-carboxamido)bicyclohexan-1-yl)acetic Acid], which IC50 is on record?
Answer: 1.2 nM

Question: How did the IC50 turn out when `O=C(O)C[C@]12C[C@](NC(=O)c3ccc(F)c4ccn(Cc5ccc(-c6ccccc6)cc5)c34)(C1)C2` [Example 35, 2-(3-(1-([1,1′-biphenyl]-4-ylmethyl)-4-fluoro-1H-indole-7-carboxamido)bicyclo[1.1.11]pentan-1-yl)acetic Acid] was run?
Answer: 0.28 nM

Question: `O=C(NC1CC2(C1)CC(C(=O)O)C2)c1cccc2ncn(Cc3ccc(C(F)(F)F)cc3)c12` (racemic) [Example 13, rac-6-(1-(4-(trifluoromethyl)benzyl)-1H-benzo[d]imidazole-7-carboxamido) spiro[3.3]heptane-2-carboxylic Acid] was tested. Which IC50 did it give?
Answer: 32 nM

Question: Which IC50 does the source give for `O=C(O)C[C@]12C[C@](NC(=O)c3cccc4cnn(Cc5ccc(OC(F)(F)F)cc5)c34)(C1)C2` [Example 37, 2-(3-(1-(4-(trifluoromethoxy)benzyl)-1H-indazole-7-carboxamido)bicyclo[1.1.1]pentan-1-yl)acetic Acid] here?
Answer: 75 nM

Question: For `O=C(O)CC12CCC(NC(=O)c3cccc4ccn(Cc5ccc(C(F)F)cc5)c34)(C1)C2` [Example 26, 2-(4-(1-(4-(difluoromethyl)benzyl)-1H-indole-7-carboxamido)bicyclo[2.1.1]hexan-1-yl)acetic Acid], which IC50 is on record?
Answer: 3.8 nM

Question: Which IC50 does the source give for `O=C(O)CC12CC(NC(=O)c3cccc4cnn(Cc5ccc(C(F)(F)F)cc5)c34)(C1)C2` [Example 6, 2-(3-(1-(4-(trifluoromethyl)benzyl)-1H-indazole-7-carboxamido)bicyclo[1.1.1]pentan-1-yl)acetic Acid] here?
Answer: 19 nM

Question: Which IC50 does the source give for `O=C(NC1CC2(C1)CC(C(=O)O)C2)c1nccc2ccn(Cc3ccc(C(F)(F)F)cc3)c12` (racemic) [Example 11, rac-6-(1-(4-(trifluoromethyl)benzyl)-1H-pyrrolo[2,3-c]pyridine-7-carboxamido)spiro[3.3]heptane-2-carboxylic Acid] here?
Answer: 24 nM

Question: How did the IC50 turn out when `O=C(O)CC12CC(NC(=O)c3ccnc4ccn(Cc5ccc(C(F)(F)F)cc5)c34)(C1)C2` [Example 3, 2-(3-(1-(4-(trifluoromethyl)benzyl)-1H-pyrrolo[3,2-b]pyridine-7-carboxamido)bicyclo[1.1.11]pentan-1-yl)acetic Acid] was run?
Answer: 160 nM

Question: `O=C(CC12CC(NC(=O)c3cccc4ccn(Cc5ccc(C(F)(F)F)cc5)c34)(C1)C2)NS(=O)(=O)c1ccccc1` [Example 16, N-(3-(2-oxo-2-(phenylsulfonamido)ethyl)bicyclo[1.1.1]pentan-1-yl)-1-(4-(trifluoromethyl)benzyl)-1H-indole-7-carboxamide] was tested. Which IC50 did it give?
Answer: 140 nM

Question: How did the IC50 turn out when `N#Cc1ccc(Cn2ccc3cccc(C(=O)NC45CC(CC(=O)O)(C4)C5)c32)cc1` [Example 1, 2-(3-(1-(4-cyanobenzyl)-1H-indole-7-carboxamido)bicyclo[1.1.1]pentan-1-yl) acetic Acid] was run?
Answer: 13 nM

Question: For `O=C(NC1CC2(C1)CC(C(=O)O)C2)c1c(F)ccc2ccn(Cc3ccc(C(F)(F)F)cc3)c12` (racemic) [Example 23, rac-6-(6-fluoro-1-(4-(trifluoromethyl)benzyl)-1H-indole-7-carboxamido)spiro heptane-2-carboxylic Acid], which IC50 is on record?
Answer: 0.3 nM

Question: With `O=C(O)CC12CCC(NC(=O)c3ccc(F)c4ccn(Cc5ccc(C(F)(F)F)cc5)c34)(C1)C2` [Example 28, 2-(4-(4-fluoro-1-(4-(trifluoromethyl)benzyl)-1H-indole-7-carboxamido)bicyclohexan-1-yl)acetic Acid] as the compound, how does the IC50 read?
Answer: 0.6 nM

Question: `O=C(NC1CC2(C1)CC(C(=O)O)C2)c1cccc2cnn(Cc3ccc(C(F)(F)F)cc3)c12` (racemic) [Example 12, rac-6-(1-(4-(trifluoromethyl)benzyl)-1H-indazole-7-carboxamido)spiro[3.3]heptane-2-carboxylic Acid] was tested. Which IC50 did it give?
Answer: 2.7 nM

Question: With `O=C(O)CC12CCC(NC(=O)c3cccc4ccn(Cc5ccc(C(F)(F)F)cc5)c34)(C1)C2` [Example 19, 2-(4-(1-(4-(trifluoromethyl)benzyl)-1H-indole-7-carboxamido)bicyclo[2.1.1]hexan-1-yl)acetic Acid] as the compound, how does the IC50 read?
Answer: 9.1 nM

Question: With `O=C(O)C[C@]12C[C@](NC(=O)c3cc(F)cc4ccn(Cc5ccc(C(F)(F)F)cc5)c34)(C1)C2` [Example 33, 2-(3-(5-fluoro-1-(4-(trifluoromethyl)benzyl)-1H-indole-7-carboxamido)bicyclopentan-1-yl)acetic Acid] as the compound, how does the IC50 read?
Answer: 0.1 nM

Question: How did the IC50 turn out when `O=C(NC1CC2(C1)CC(C(=O)O)C2)c1cccc2ccn(Cc3ccc(C(F)F)cc3)c12` (racemic) [Example 25, rac-6-(1-(4-(difluoromethyl)benzyl)-1H-indole-7-carboxamido)spiro[3.3] heptane-2-carboxylic Acid] was run?
Answer: 0.4 nM

Question: For `O=C(NC1CC2(C1)CC(C(=O)O)C2)c1cc(F)cc2ccn(Cc3ccc(C(F)(F)F)cc3)c12` (racemic) [Example 21, rac-6-(5-fluoro-1-(4-(trifluoromethyl)benzyl)-1H-indole-7-carboxamido)spiro heptane-2-carboxylic Acid], which IC50 is on record?
Answer: 0.31 nM

Question: How did the IC50 turn out when `O=C(O)C[C@]12C[C@](NC(=O)c3cccc4ccn(Cc5ccc(-c6ccccc6)cc5)c34)(C1)C2` [Example 34, 2-(3-(1-([1,1′-biphenyl]-4-ylmethyl)-1H-indole-7-carboxamido)bicyclo[1.1.1]pentan-1-yl)acetic Acid] was run?
Answer: 0.22 nM

Question: How did the IC50 turn out when `O=C(O)C[C@]12C[C@](NC(=O)c3cccc4cnn(Cc5ccc(-c6ccccc6)cc5)c34)(C1)C2` [Example 36, 2-(3-(1-([1,1′-biphenyl]-4-ylmethyl)-1H-indazole-7-carboxamido)bicyclo[1.1.1]pentan-1-yl)acetic Acid] was run?
Answer: 0.32 nM

Question: Which IC50 does the source give for `O=C(O)CC12CC(NC(=O)c3cccc4ccn(Cc5ccc(C(F)(F)F)cc5)c34)(C1)C2` [Example 2, 2-(3-(1-(4-(trifluoromethyl)benzyl)-1H-indole-7-carboxamido)bicyclo[1.1.1]pentan-1-yl)acetic Acid] here?
Answer: 1.5 nM

— patent US11066405B2, “Bicyclic compounds and their use in the treatment of cancer” (Tempest Therapeutics, Inc., priority 2017, dated 2021)
